# Results taken from patent publication US4379165A, “Anti-convulsant” (priority 1981, dated 1983).
# “Also recorded” adds a separate entry of the source. Where two headings read alike, the source gives them in different places.
# Legend:
# [1] = in vivo; details: mouse
# Protocol: (§1) The solution was prepared by dissolving the compound in 30% polyethylene glycol 400. The compound was injected either orally or intraperitoneally in a volume of 0.01 ml/g body weight in mice and 0.04 ml/10 g body weight in rats.
# (§2) Untreated or normal animals can easily maintain their balance in this test.
# [2] = system: maximal electroshock seizures; test: maximal electroshock seizure (MES) pattern test, mice; details: for ED50: Mus musculus, read-out: ED50 MES
# Protocol: as §1
# (§3) The profile of anti-convulsant activity for each substance was established by five tests: one electrical and four chemical. The electrical test employed was the maximal electroshock seizure (MES) pattern test. […] These tests are conducted by administering the anti-convulsant compound or drug to the animals then giving the convulsive amount of electrical energy or chemical convulsant and measuring the ability of the test compound to prevent the production of convulsions.
# (§4) This test measures the ability of the test drug to abolish the hind-limb tonic-extensor component of maximal seizures induced by 50 mA of current delivered to the animals for 0.2 seconds.
# [3] = system: subcutaneous metrazol seizure threshold; test: subcutaneous Metrazol Seizure Threshold Test (sc Met), mice; details: for ED50: Mus musculus, read-out: ED50 sc Met
# Protocol: as §1
# (§5) The profile of anti-convulsant activity for each substance was established by five tests: one electrical and four chemical. The electrical test employed was the maximal electroshock seizure (MES) pattern test. The four chemical tests included the subcutaneous Metrazol Seizure Threshold Test (sc Met), subcutaneous Bicuculline Seizure Threshold Test (sc Bic), subcutaneous Picrotoxin Seizure Threshold Test (sc Pic), and the subcutaneous Strychnine Seizure Pattern Test (sc Strych). These tests are conducted by administering the anti-convulsant compound or drug to the animals then giving the convulsive amount of electrical energy or chemical convulsant and measuring the ability of the test compound to prevent the production of convulsions.
# (§6) (b) scMet=Subcutaneous metrazol seizure threshold test. The test measures the ability of the test drug to afford complete protection against a subcutaneously administered convulsant dose of metrazol.
# (§7) (j) PI=Protective index, defined as the ratio of TD50 to ED50 (TD50/ED50).
# [4] = system: ability to maintain balance on a rotating rod; test: Rotorod Toxicity Test, rats; format: in vivo; details: for animals toxic: intraperitoneal, footnote of Table 5
# Protocol: as §1, §2
# [5] = system: lethality; test: lethality, LD50; format: in vivo; details: mice; intraperitoneal; 24-hour period
# Protocol: (§8) The anti-convulsant amide (4) was administered to mice and rats as a solution. The solution was prepared by dissolving the compound in 30% polyethylene glycol 400. The compound was injected either orally or intraperitoneally in a volume of 0.01 ml/g body weight in mice and 0.04 ml/10 g body weight in rats.
# [6] = system: subcutaneous picrotoxin seizure threshold; test: animal or person; details: Mus musculus, ip, read-out: ED50 Picrotoxin
# Protocol: as §1, §5
# (§9) (d) scPic=Subcutaneous picrotoxin seizure threshold test.
# (§10) (j) PI=Protective index, defined as the ratio of TD50 to ED50 (TD50/ED50). The PI is a measure of the safety of the drug. A high PI value indicates a greater margin of safety between the effective dose for the pharmacological effect and the toxic dose producing side-effects. A compound with a high PI would be a safer drug to use.
# [7] = system: subcutaneous strychnine seizure pattern; test: animal or person; details: Mus musculus, ip, read-out: ED50 Strychnine
# Protocol: as §1
# (§11) The profile of anti-convulsant activity for each substance was established by five tests: one electrical and four chemical. […] The four chemical tests included the subcutaneous Metrazol Seizure Threshold Test (sc Met), subcutaneous Bicuculline Seizure Threshold Test (sc Bic), subcutaneous Picrotoxin Seizure Threshold Test (sc Pic), and the subcutaneous Strychnine Seizure Pattern Test (sc Strych). These tests are conducted by administering the anti-convulsant compound or drug to the animals then giving the convulsive amount of electrical energy or chemical convulsant and measuring the ability of the test compound to prevent the production of convulsions.
# (§12) (e) ScStrych=Subcutaneous strychnine seizure pattern test. The test measures the ability of the test drug to abolish all toxic components of seizures induced by the subcutaneous injection of a convulsant dose of strychnine.
# [8] = hypnosis (loss of righting reflex), HD50; details: mouse, in vivo, ip
# Protocol: as §1
# (§13) (h) HD50=Hypnotic dose in 50% of the subjects tested.
# (§14) (l) Slope of regression line--This represents the rate of change in response (effect) for a change in dose. The higher the numerical value of the slope, the greater the rate of change in response.
# [9] = system: righting reflex; test: hypnosis (loss of righting reflex), HD50; details: mice; intraperitoneal
# Protocol: as §1, §13, §14
# [10] = system: maximal electroshock seizures; test: maximal electroshock seizure (MES) pattern test, rats; details: for ED50: Rattus norvegicus, po, read-out: ED50 MES
# Protocol: as §1, §3, §4
# [11] = system: subcutaneous bicuculline seizure threshold; test: subcutaneous Bicuculline Seizure Threshold Test (sc Bic); details: for ED50: Mus musculus, ip, read-out: ED50 Bicuculline, mice
# Protocol: as §1, §11
# (c) scBic=Subcutaneous bicuculline seizure threshold test.
# as §7
# [12] = system: subcutaneous metrazol seizure threshold; test: subcutaneous Metrazol Seizure Threshold Test (sc Met), rats; details: for ED50: Rattus norvegicus, po; for animals protected vs sc Met test: intraperitoneal, footnote of Table 5
# Protocol: as §1, §5, §6, §7
# [13] = system: ability to maintain balance on a rotating rod
# Protocol: as §1, §2
# [14] = Rotorod Toxicity Test, rats; format: in vivo; details: rat, in vivo, po
# Protocol: as §1, §2
# [15] = system: subcutaneous picrotoxin seizure threshold; details: mice
# Protocol: as §1, §5, §9, §10
# [16] = system: subcutaneous strychnine seizure pattern; details: mice
# Protocol: as §1, §11, §12
# [17] = in vivo; details: mouse, ip
# Protocol: as §1, §13, §14
# [18] = lethality, LD50; format: in vivo; details: mouse, in vivo, ip, mice, intraperitoneal; for LD50 at 24 h: 24-hour period
# Protocol: as §8
# [19] = system: Salmonella indicator organisms; test: in vitro microbial mutagenicity assays; details: 1.0 ug to 10,000.0 ug per plate
# Protocol: The amide was examined for mutagenic activity in a series of in vitro microbial assays employing Salmonella indicator organisms. The compound was tested directly and in the presence of liver microsomal enzyme preparations from Aroclor-induced rats. The dose range employed for the evaluation was from 1.0 ug to 10,000.0 ug per plate. The results of the tests conducted on the amide in the absence of a metabolic activation system and in the presence of a rat liver activation system were negative.
# [20] = system: convulsions; test: anti-convulsant activity, overall statements from animal studies; format: in vivo; details: mice and rats
# [21] = in vivo; details: mouse; remark: listed apart in the source
# Protocol: as §1, §3, §4
# [22] = maximal electroshock seizure (MES) pattern test, rats; details: rat, in vivo, po, PI (TD50/ED50) MES, rats (Table 7; title of Table 5 prints Mice)
# Protocol: as §1, §3, §4
# [23] = subcutaneous Metrazol Seizure Threshold Test (sc Met), mice; details: mouse, in vivo, PI (TD50/ED50) sc Met, mice
# Protocol: as §1, §5, §6, §7
# [24] = subcutaneous Metrazol Seizure Threshold Test (sc Met), rats; details: rat, in vivo, po
# Protocol: as §1, §5, §6, §7
# [25] = rats (Table 7; title of Table 5 prints Mice), oral
# [26] = mice, intraperitoneal, up to 100 (mg/kg)
# [27] = mice, oral, at / up to 300 (mg/kg)
# [28] = rats (Table 7; title of Table 5 prints Mice), oral, at 300 (mg/kg)
structure (smiles),measurement,setting,value
CCCCCNC(=O)c1ccc(N)cc1 [compound 3],TD50,[1]; ip,68.5 mg/kg
same,ED50,[2]; ip,43 mg/kg
same,ED50,[3]; ip,57.3 mg/kg
CCC1(c2ccccc2)C(=O)NC(=O)NC1=O [Phenobarbital],Rotorod TD50,[4]; [25],61.09 mg/kg
same,LD50 (lethality),[5],264.70 mg/kg
same,ED50,[6],27.5 mg/kg
same,ED50,[7],95.3 mg/kg
same,TD50,[8],135 mg/kg
same,HD50 (righting reflex),[9],135.45 mg/kg
same,ED50,[2]; ip,21.8 mg/kg
same,ED50,[2]; po,20.1 mg/kg
same,ED50,[10],9.14 mg/kg
same,ED50,[11]; intraperitoneal,37.7 mg/kg
same,ED50,[3]; ip,13.2 mg/kg
same,ED50,[3]; po,12.6 mg/kg
same,ED50,"[12]; read-out: ED50 sc Met, rats (Table 7; title of Table 5 prints Mice), oral",11.6 mg/kg
same,ED50 sc Met,[12]; [25],11.58 mg/kg
Nc1ccc(C(=O)Nc2ccccc2)cc1 [compound 1],TD50,"[13]; mouse, in vivo, ip",111.30 mg/kg
same,ED50,[2]; ip,50.5 mg/kg
same,ED50,[3]; ip,59.1 mg/kg
"Nc1ccc(C(=O)NCc2ccccc2)cc1 [No. 4, 4-amino-N-benzyl-benzamide]",TD50,[1]; ip,83.4 mg/kg
same,ED50,[2]; ip,23.3 mg/kg
O=C1NC(=O)C(c2ccccc2)(c2ccccc2)N1 [Phenytoin],TD50,[14],> 3000 mg/kg
same,LD50 (lethality),[5],229.61 mg/kg
same,"protection, Picrotoxin","[15]; intraperitoneal, up to 100 (mg/kg)",No pro-
same,"Max. Prot., Strychnine","[16]; intraperitoneal, at 55-100 (mg/kg)",50%
same,TD50,[17],178 mg/kg
same,ED50,[10],29.8 mg/kg
same,"protection, Bicuculline",[11]; [26],No pro-
same,"protection, sc Met",[3]; [26],No pro-
same,"protection, sc Met","[3]; mice, intraperitoneal, up to 300 (mg/kg)",No protect-; also recorded: No protection
same,"protection, sc Met",[3]; [27],No protection; also recorded: No pro-
same,"protection, sc Met","[12]; rats (Table 7; title of Table 5 prints Mice), oral, up to 800 (mg/kg)",No pro-
CC(NC(=O)c1ccc(N)cc1)c1ccccc1 (stereo not drawn) [4-amino-N-(alpha-methylbenzyl)-benzamide],TD50,[14],170 mg/kg
same,animals toxic,[4]; 75 mg/kg,2/8
same,animals toxic,[4]; 150 mg/kg,6/8
same,selectivity ratio,[18]; read-out: Ratio LD50/HD50,1.56
same,selectivity ratio,[18]; read-out: Ratio LD50/TD50,4.21
same,LD50 at 24 h,[18],718 mg/kg
same,mutagenic activity,[19]; absence of a metabolic activation system,negative
same,mutagenic activity,[19]; rat liver activation system,negative
same,anti-convulsant activity in words,[20],effective against a wide range of convulsion types; also recorded: exhibits anti-convulsant activity in mice and rats
same,activity against picrotoxin seizures,[15]; in words,effective against picrotoxin seizures in toxic doses
same,PI (TD50/ED50) Picrotoxin,[15]; intraperitoneal,0.89
same,activity against seizures induced by strychnine,[16]; in words,only partially effective
same,PI (TD50/ED50) Strychnine,[16]; intraperitoneal,< 0.85
same,"Maximum protection, Strychnine","[16]; intraperitoneal, at 170 mg/kg",37.5%
same,"protection, Strychnine","[16]; intraperitoneal, at 200 (mg/kg)",25%
same,Rotorod TD50,"[13]; mice, intraperitoneal",170.78 mg/kg
same,selectivity ratio,[21]; ip,9.48
same,selectivity ratio,[21]; po,5.69
same,TD50,[1]; ip,171 mg/kg
same,TD50,[1]; po,271 mg/kg
same,ED50,[6],191 mg/kg
same,TD50,[8],462 mg/kg
same,HD50 (righting reflex),[9],461.76 mg/kg
same,oral ED50/i.p. ED50,[2]; MES test in mice,2.65
same,ED50,[2]; ip,18 mg/kg
same,ED50,[2]; po,47.7 mg/kg
same,absorption after oral administration,"[2]; mice, from oral ED50/i.p. ED50 in MES test",adequately absorbed
same,selectivity ratio,[22],10.6
same,ED50,[10],16.1 mg/kg
same,PI (TD50/ED50) MES,[10]; [25],10.5
same,ED50,[11]; intraperitoneal,39.1 mg/kg
same,activity against seizures induced by bicuculline,"[11]; mice, in words",effective against seizures induced by bicuculline
same,PI (TD50/ED50) Bicuculline,"[11]; mice, intraperitoneal",4.37
same,selectivity ratio,[23]; intraperitoneal,4.09
same,selectivity ratio,[23]; oral,< 0.9
same,ED50,[3]; ip,41.7 mg/kg
same,"Maximum protection, sc Met","[3]; mice, oral, at 100 (mg/kg)",25%
same,"protection, sc Met",[3]; [27],no protection and No
same,animals protected vs sc Met test,[12]; 75 mg/kg,4/8
same,animals protected vs sc Met test,[12]; 150 mg/kg,8/8
same,"Max. Prot., sc Met",[12]; [28],50%
same,"animals with recurring clonic seizures, sc Met",[12]; [28],1 of 8
NC(=O)N1c2ccccc2C=Cc2ccccc21 [Carbamazepine],LD50 at 24 h,[18],629 mg/kg
same,TD50,[17],172 mg/kg
same,ED50,[6],37.2 mg/kg
same,ED50,[7],78.8 mg/kg
same,ED50,[2]; ip,8.81 mg/kg
same,ED50,[2]; po,15.4 mg/kg
same,ED50,[10],8.5 mg/kg
same,"fraction protected, Bicuculline","[11]; mice, intraperitoneal, 100 mg/kg",1/2
same,"Max. Prot., Bicuculline","[11]; mice, intraperitoneal, at 50-130 (mg/kg)",62.5%
same,ED50,[3]; po,48.1 mg/kg
same,"protection, sc Met",[3]; [26],No protection; also recorded: No protect-
same,sc Met result in words,[12]; [25],Variable
CCC1(c2ccccc2)NC(=O)N(C)C1=O (stereo not shown) [Mephenytoin],TD50,[14],85.7 mg/kg
same,selectivity ratio,[18]; read-out: Ratio LD50/HD50,1.4
same,selectivity ratio,[18]; read-out: Ratio LD50/TD50,3.69
same,LD50 at 24 h,[18],568 mg/kg
same,PI (TD50/ED50) Picrotoxin,[15]; intraperitoneal,1.52
same,"Max. Prot., Strychnine","[16]; intraperitoneal, at 70-150 (mg/kg)",50%
same,selectivity ratio,"[21]; ip, PI (TD50/ED50) MES, mice, intraperitoneal",2.54
same,selectivity ratio,"[21]; po, PI (TD50/ED50) MES, mice",5.37
same,TD50,[1]; po,354 mg/kg
same,TD50,[17],406 mg/kg
same,ED50,[6],101 mg/kg
same,ED50,[2]; ip,60.5 mg/kg
same,ED50,[2]; po,65.9 mg/kg
same,selectivity ratio,[22],4.74
same,ED50,[10],18.1 mg/kg
same,PI (TD50/ED50) Bicuculline,"[11]; mice, intraperitoneal",1.24
same,selectivity ratio,[23]; intraperitoneal,5.05
same,selectivity ratio,[23]; oral,9.75
same,ED50,[3]; ip,30.4 mg/kg
same,ED50,[3]; po,36.3 mg/kg
same,PI (TD50/ED50) sc Met,"[3]; mice, oral",9.73
same,selectivity ratio,[24],3.96
same,ED50,[12]; read-out: ED50 sc Met,21.6 mg/kg
Nc1ccc(C(=O)NC2CCCCC2)cc1 [compound 2],TD50,[1]; ip,189 mg/kg
same,ED50,[2]; ip,67.2 mg/kg
same,ED50,[3]; ip,123 mg/kg
CCCN(CCC)C(=O)c1ccc(N)cc1 [compound 5],TD50,[1]; ip,116 mg/kg
same,ED50,[2]; ip,61.7 mg/kg
